Converted amounts (≈) assume the structure as drawn.
How the values were obtained:
[1] = Toxicity, LD50 by intraperitoneal route; details: mouse, in vivo, ip, mice
[2] = system: B. subtilis; assay: Bactericide activity at different contact times; type: cell-based; design: key: + = growth; - = no growth; details: 100 p.p.m.
Description: (§1) Different bacterial species isolated from patients are employed.
(§2) Compounds AB5 and AB6 are dissolved in ethanol (ethyl alcohol 95°, C. Erba) and all the subsequent dilutions performed in distilled water. The chlorhexidine is diluted from the commercial product already dissolved in distilled water.
(§3) It is assessed through Dinatech apparatus with "Inoculum 96" head.
(§4) Chemical compounds at established concentra tions are placed in amount of 1 ml in the con tainers, the bacterial inoculum is then added in amount of 0.1 ml (24 hrs culture) and at pre-established times (3,5,10,30,60 and 120 mi nutes), through the head, the mixture compound/ disinfectant agent is transferred in solid medium (agar-heart-brain medium). After incubation at 35°C for 24 hours, the reading is carried out. The tests are repeated in presence of human serum at the concentration of 10%.

[3] = system: Staph. aureus; assay: Bactericide activity at different contact times; type: cell-based; design: key: + = growth; - = no growth; details: 100 p.p.m.
Description: as §1, §2, §3, §4

[4] = system: Salmonella sp.; assay: Bactericide activity at different contact times; type: cell-based; design: key: + = growth; - = no growth; details: 100 p.p.m.
Description: as §1, §2, §3, §4

[5] = system: Pseudomonas aeruginosa; assay: Bactericide activity at different contact times; type: cell-based; design: key to Bactericide action (growth / no growth) / Bactericide activity (growth / no growth), serum interference test: + = growth; - = no growth
Description: as §1, §2, §3, §4

[6] = system: Serratia marcescens; assay: Minimum inhibitory concentration (MIC), broth dilution; type: cell-based; details: 24 h, strain 1814
Description: as §1, §2
(§5) The broth dilution is employed to assess MIC values for all strains. Sterile microtiter plates with U bottom with 96 wells are employed. 0.1 Ml of liquid medium (tryptose Roche broth) are put in each well, the plates are kept at -20° and, before use, at room temperature.
(§6) The disinfectant agent is put in the wells of the row 2 at a concentration of 4000 mcg/ml (real 2000 mcg/ml) and then with a 100 µl micro- pipette dilutions are performed from row 2 to row 11.
(§7) The row 1 is the control of the medium and the row 12 is the control for the fertility of the medium itself.
(§8) After having performed the dilutions, 0.01 ml of a 24 hrs bacterial broth culture (previously diluted at 10^-4 for Gram-negative strains and 10-2 for Gram-positive ones) are placed in all wells, from the rows 2 to 12. After the inoculation, the plate is hermetical ly sealed with adhesive transparent band and an hole is done with a needle. The plates are kept at 35° for 24 hours and a macroscopic reading is carried out; in case of non uniform reading, taking place only for chlorhexidine, the cultures from the wells are plated on agar-heart-brain medium (Sclavo) through Dinatech apparatus (head "Inoculum 96") and the reading of the growth is carried out in the following 24 hours.

[7] = system: Staph. aureus; assay: as above; type: cell-based; details: Staphylococcus aureus, 24 h; strain 2672
Description: as §1, §2, §5, §6, §7, §8

[8] = system: Pseudomonas aeruginosa; assay: as above; type: cell-based; details: 24 h
Description: as §1, §2, §5, §6, §7, §8

[9] = system: Bacillaceae; assay: as above; type: cell-based; details: 24 h; strain 1722
Description: as §1, §2, §5, §6, §7, §8

[10] = system: Enterobacter; assay: as above; type: cell-based; details: 24 h, strain 2643
Description: as §1, §2, §5, §6, §7, §8

[11] = system: Indole-positive Proteus; assay: as above; type: cell-based; details: 24 h
Description: as §1, §2, §5, §6, §7, §8

[12] = system: Salmonella sp.; assay: as above; type: cell-based; details: 24 h, strain 2482
Description: as §1, §2, §5, §6, §7, §8

[13] = system: E.coli; assay: as above; type: cell-based; details: Escherichia coli, 24 h
Description: as §1, §2, §5, §6, §7, §8

[14] = system: Serratia marcescens; assay: Bactericide activity at different contact times; type: cell-based; design: key to Bactericide action (growth / no growth): + = growth; - = no growth; details: 100 p.p.m.
Description: as §1, §2, §3, §4

[15] = system: E. coli; assay: Bactericide activity at different contact times; type: cell-based; design: key to Bactericide action (growth / no growth): + = growth; - = no growth; details: 100 p.p.m.
Description: as §1, §2, §3, §4

[16] = system: Indole-positive Proteus; assay: Bactericide activity at different contact times; type: cell-based; design: key to Bactericide action (growth / no growth): + = growth; - = no growth; details: 100 p.p.m.
Description: as §1, §2, §3, §4

## NC(=NI)c1ccccc1 [AB6]
[1]
  LD50: 85 mg/kg
[2]; contact time 3 min
  Bactericide action (growth / no growth): -
[2]; contact time 5 min
  Bactericide action (growth / no growth): -
[2]; contact time 10 min
  Bactericide action (growth / no growth): -
[2]; contact time 30 min
  Bactericide action (growth / no growth): -
[2]; contact time 60 min
  Bactericide action (growth / no growth): -
[2]; contact time 120 min
  Bactericide action (growth / no growth): -
[3]; contact time 3 min
  Bactericide action (growth / no growth): -
[3]; contact time 5 min
  Bactericide action (growth / no growth): -
[3]; contact time 10 min
  Bactericide action (growth / no growth): -
[3]; contact time 30 min
  Bactericide action (growth / no growth): -
[3]; contact time 60 min
  Bactericide action (growth / no growth): -
[3]; contact time 120 min
  Bactericide action (growth / no growth): -
[4]; contact time 3 min
  Bactericide action (growth / no growth): -
[4]; contact time 5 min
  Bactericide action (growth / no growth): -
[4]; contact time 10 min
  Bactericide action (growth / no growth): -
[4]; contact time 30 min
  Bactericide action (growth / no growth): -
[4]; contact time 60 min
  Bactericide action (growth / no growth): -
[4]; contact time 120 min
  Bactericide action (growth / no growth): -
[5]; 100 p.p.m.
  contact time for total bactericide activity: ≤ 3 min
[5]; contact time 3 min, 100 p.p.m.
  Bactericide action (growth / no growth): -
[5]; contact time 3 min, with human serum (10%)
  Bactericide activity (growth / no growth), serum interference test: +
[5]; contact time 3 min, without serum
  Bactericide activity (growth / no growth), serum interference test: -
[5]; contact time 5 min, 100 p.p.m.
  Bactericide action (growth / no growth): -
[5]; contact time 5 min, with human serum (10%)
  Bactericide activity (growth / no growth), serum interference test: +
[5]; contact time 5 min, without serum
  Bactericide activity (growth / no growth), serum interference test: -
[5]; contact time 10 min, 100 p.p.m.
  Bactericide action (growth / no growth): -
[5]; contact time 10 min, with human serum (10%)
  Bactericide activity (growth / no growth), serum interference test: +
[5]; contact time 10 min, without serum
  Bactericide activity (growth / no growth), serum interference test: -
[5]; contact time 30 min, 100 p.p.m.
  Bactericide action (growth / no growth): -
[5]; contact time 30 min, with human serum (10%)
  Bactericide activity (growth / no growth), serum interference test: +
[5]; contact time 30 min, without serum
  Bactericide activity (growth / no growth), serum interference test: -
[5]; contact time 60 min, 100 p.p.m.
  Bactericide action (growth / no growth): -
[5]; contact time 60 min, with human serum (10%)
  Bactericide activity (growth / no growth), serum interference test: -
[5]; contact time 60 min, without serum
  Bactericide activity (growth / no growth), serum interference test: -
[5]; contact time 120 min, 100 p.p.m.
  Bactericide action (growth / no growth): -
[5]; contact time 120 min, with human serum (10%)
  Bactericide activity (growth / no growth), serum interference test: -
[5]; contact time 120 min, without serum
  Bactericide activity (growth / no growth), serum interference test: -
[6]
  MIC: 125 µg/mL (≈ 0.508 mM)
[7]
  MIC: 1000 µg/mL (≈ 4.06 mM)
[8]; strain 2084
  MIC: > 1000 µg/mL
[8]; strain 2458
  MIC: > 1000 µg/mL
[8]; strain 2488
  MIC: 1000 µg/mL (≈ 4.06 mM)
[8]; strain 2508
  MIC: 1000 µg/mL (≈ 4.06 mM)
[8]; strain 2509
  MIC: 1000 µg/mL (≈ 4.06 mM)
[8]; strain 2670
  MIC: 1000 µg/mL (≈ 4.06 mM)
[9]
  MIC: 31.2 µg/mL (≈ 0.127 mM)
[10]
  MIC: 1000 µg/mL (≈ 4.06 mM)
[11]; strain 2075
  MIC: > 1000 µg/mL
[11]; strain 2083
  MIC: > 1000 µg/mL
[11]; strain 2105
  MIC: > 1000 µg/mL
[11]; strain 2410
  MIC: > 2000 µg/mL
[11]; strain 2447
  MIC: > 2000 µg/mL
[11]; strain 2674
  MIC: 1000 µg/mL (≈ 4.06 mM)
[12]
  MIC: > 1000 µg/mL
[13]; strain 2094
  MIC: > 1000 µg/mL
[13]; strain 2096
  MIC: > 1000 µg/mL
[13]; strain 2117
  MIC: > 1000 µg/mL
[13]; strain 2456
  MIC: > 1000 µg/mL
[13]; strain 2568
  MIC: 2000 µg/mL (≈ 8.13 mM)
[14]
  longest time in which it is active: 30 min
[14]; contact time 3 min
  Bactericide action (growth / no growth): +
[14]; contact time 5 min
  Bactericide action (growth / no growth): +
[14]; contact time 10 min
  Bactericide action (growth / no growth): +
[14]; contact time 30 min
  Bactericide action (growth / no growth): -
[14]; contact time 60 min
  Bactericide action (growth / no growth): -
[14]; contact time 120 min
  Bactericide action (growth / no growth): -
[15]; contact time 3 min
  Bactericide action (growth / no growth): +
[15]; contact time 5 min
  Bactericide action (growth / no growth): +
[15]; contact time 10 min
  Bactericide action (growth / no growth): -
[15]; contact time 30 min
  Bactericide action (growth / no growth): -
[15]; contact time 60 min
  Bactericide action (growth / no growth): -
[15]; contact time 120 min
  Bactericide action (growth / no growth): -
[16]
  contact time for total bactericide activity: ≤ 3 min
[16]; contact time 3 min
  Bactericide action (growth / no growth): -
[16]; contact time 5 min
  Bactericide action (growth / no growth): -
[16]; contact time 10 min
  Bactericide action (growth / no growth): -
[16]; contact time 30 min
  Bactericide action (growth / no growth): -
[16]; contact time 60 min
  Bactericide action (growth / no growth): -
[16]; contact time 120 min
  Bactericide action (growth / no growth): -
